The values below come from patent US11304946B2, “2-hetarylpyrimidine-4-carboxamides as aryl hydrocarbon receptor antagonists” (Bayer Aktiengesellschaft, priority 2017, dated 2022).

Assay [1] concerns the target T1, Human AhR (Homo sapiens, UniProt P35869).
T1 construct: host or cells: U87 glioblastoma cells, stably transfected with DRE-driven firefly luciferase and constitutive renilla reporter constructs
T1 sequence (P35869 11-848): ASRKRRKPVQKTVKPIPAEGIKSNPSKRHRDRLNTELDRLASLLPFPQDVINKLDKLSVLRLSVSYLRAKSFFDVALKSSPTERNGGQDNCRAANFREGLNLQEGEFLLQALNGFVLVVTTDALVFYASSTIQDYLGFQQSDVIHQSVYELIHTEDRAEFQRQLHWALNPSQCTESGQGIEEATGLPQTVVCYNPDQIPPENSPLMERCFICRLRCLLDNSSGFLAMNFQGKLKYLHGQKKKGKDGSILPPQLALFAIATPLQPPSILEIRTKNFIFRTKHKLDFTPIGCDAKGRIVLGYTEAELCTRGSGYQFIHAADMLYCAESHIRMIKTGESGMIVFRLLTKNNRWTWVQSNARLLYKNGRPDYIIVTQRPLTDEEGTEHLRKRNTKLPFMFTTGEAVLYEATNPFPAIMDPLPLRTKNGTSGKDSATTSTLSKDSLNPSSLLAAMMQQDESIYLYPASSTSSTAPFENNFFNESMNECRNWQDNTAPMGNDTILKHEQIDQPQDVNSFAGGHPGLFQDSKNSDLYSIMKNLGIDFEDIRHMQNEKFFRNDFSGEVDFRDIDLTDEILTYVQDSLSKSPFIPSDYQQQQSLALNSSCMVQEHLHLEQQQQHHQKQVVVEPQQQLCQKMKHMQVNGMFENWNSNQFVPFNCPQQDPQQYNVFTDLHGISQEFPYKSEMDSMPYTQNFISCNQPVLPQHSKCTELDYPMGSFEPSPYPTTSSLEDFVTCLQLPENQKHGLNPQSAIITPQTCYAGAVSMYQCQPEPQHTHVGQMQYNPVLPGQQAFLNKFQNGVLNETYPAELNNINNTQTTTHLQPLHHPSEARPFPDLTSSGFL
Put plainly: Transactivation assay in human cell line (in vitro assay 1: antagonism). It is filed as cell-based. As to conditions: U87 glioblastoma cells, AHR inducible (DRE) firefly luciferase reporter, 150 μM kynurenic acid, 20 hours. In a few lines: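 U87 glioblastoma cells with endogenous AHR, stably carrying DRE-driven firefly luciferase and constitutive Renilla reporters, prestimulated with kynurenic acid before compound. Dual luciferase read-out; Renilla signal used to flag toxicity.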
(Reporter assays use an easily measured gene product as a stand-in for the process of interest.)

The target of assay [2] is T2, Mouse AhR (Mus musculus, UniProt P30561).
T2 sequence (P30561 1-848): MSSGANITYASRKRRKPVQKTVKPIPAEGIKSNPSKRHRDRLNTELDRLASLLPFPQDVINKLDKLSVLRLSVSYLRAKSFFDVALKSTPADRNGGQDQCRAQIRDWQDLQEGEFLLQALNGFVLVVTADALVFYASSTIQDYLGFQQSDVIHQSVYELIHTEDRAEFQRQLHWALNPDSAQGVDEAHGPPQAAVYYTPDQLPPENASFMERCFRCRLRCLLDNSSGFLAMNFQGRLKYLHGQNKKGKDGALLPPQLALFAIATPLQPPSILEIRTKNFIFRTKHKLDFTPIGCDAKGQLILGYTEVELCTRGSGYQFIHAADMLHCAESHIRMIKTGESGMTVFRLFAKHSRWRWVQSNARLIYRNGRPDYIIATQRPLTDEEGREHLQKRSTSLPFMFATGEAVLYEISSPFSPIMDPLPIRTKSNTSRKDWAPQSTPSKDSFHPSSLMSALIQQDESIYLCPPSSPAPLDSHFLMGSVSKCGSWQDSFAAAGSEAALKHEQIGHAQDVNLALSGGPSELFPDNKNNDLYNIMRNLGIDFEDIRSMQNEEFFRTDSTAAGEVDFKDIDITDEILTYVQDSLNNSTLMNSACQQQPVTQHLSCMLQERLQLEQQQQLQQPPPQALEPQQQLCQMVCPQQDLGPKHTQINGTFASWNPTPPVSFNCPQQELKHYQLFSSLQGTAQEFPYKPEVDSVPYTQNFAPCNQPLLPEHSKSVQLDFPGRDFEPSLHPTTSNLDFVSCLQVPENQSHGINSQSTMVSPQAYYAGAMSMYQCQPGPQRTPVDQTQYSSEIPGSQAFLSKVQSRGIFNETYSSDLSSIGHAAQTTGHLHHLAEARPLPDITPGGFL
Nature of the assay: Transactivation assay in mouse cell line (in vitro assay 2: antagonism). It is filed as cell-based. As to conditions: Hepa 1c1c7 cells, AHR inducible (DRE) firefly luciferase reporter, 200 μM kynurenic acid, 20 hours. In a few lines: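 Hepa 1c1c7 cells express AhR endogenously and stably carry a DRE-driven firefly luciferase reporter. They were prestimulated with the agonist kynurenic acid before compound testing for antagonism. Luciferase read by SteadyGlo luminescence.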

What is called IC50 is the concentration that gives 50% inhibition. A high value points to weaker potency in that assay. On to `C[C@@H](CO)NC(=O)c1cc(-c2ccc(OC(F)(F)F)cc2)nc(-c2ccc(C#N)s2)n1` [Example 28, 2-(5-cyanothiophen-2-yl)-N-[(2S)-1-hydroxypropan-2-yl]-6-[4-(trifluoromethoxy)phenyl]pyrimidine-4-carboxamide], for which the concentration for half-maximal inhibition (IC50) stood at 167 nM in assay [1] and 229 nM in assay [2].
Turning to `C[C@@H](CO)NC(=O)c1cc(-c2ccc(Cl)cc2)nc(-c2ccc(C#N)s2)n1` [Example 70, 6-(4-chlorophenyl)-2-(5-cyanothiophen-2-yl)-N-[(2S)-1-hydroxypropan-2-yl]pyrimidine-4-carboxamide], the IC50 in assay [1] stood at 94.2 nM; in assay [2], 295 nM.
In the case of `Cn1cc(-c2nc(C(=O)NCC(C)(C)O)cc(-c3ccc(C(F)(F)F)cc3)n2)cn1` [Example 8, N-(2-hydroxy-2-methylpropyl)-2-(1-methyl-1H-pyrazol-4-yl)-6-[4-(trifluoromethyl)phenyl]pyrimidine-4-carboxamide], the figures for the IC50 in assay [1] and in assay [2] were 2.57 nM and 7.19 nM, respectively.
In the case of `Cn1cc(-c2nc(C(=O)N[C@@H]3CC[C@H]3O)cc(-c3ccc(OC(F)(F)F)cc3)n2)cn1` (relative stereo) [Example 86, N-[(trans)-2-hydroxycyclobutyl]-2-(1-methyl-1H-pyrazol-4-yl)-6-[4-(trifluoromethoxy)phenyl]pyrimidine-4-carboxamide], the IC50 was 5.74 nM in assay [1] and 7.07 nM in assay [2].
Turning to `CC(C)(O)CNC(=O)c1cc(-c2ccc(OC(F)(F)F)cc2)nc(-c2cccnc2)n1` [Example 3, N-(2-hydroxy-2-methylpropyl)-2-(pyridin-3-yl)-6-[4-(trifluoromethoxy)phenyl]pyrimidine-4-carboxamide], the 50% inhibitory concentration (IC50) in assay [1] came to 3.86 nM; in assay [2], 7.81 nM.
As to `C[C@H](NC(=O)c1cc(-c2ccc(C(F)F)cc2)nc(-c2cccnc2)n1)C(C)(C)O` [Example 119, 6-[4-(difluoromethyl)phenyl]-N-[(2S)-3-hydroxy-3-methylbutan-2-yl]-2-(pyridin-3-yl)pyrimidine-4-carboxamide], the figures for the half-inhibitory concentration (IC50) in assay [1] and in assay [2] were 2.88 nM and 6.81 nM, respectively.
Turning to `O=C(N[C@H]1COC[C@@H]1O)c1cc(-c2ccc(OC(F)(F)F)cc2)nc(-c2cccnc2)n1` [Example 118, N-[(3S,4R)-4-hydroxyoxolan-3-yl]-2-(pyridin-3-yl)-6-[4-(trifluoromethoxy)phenyl]pyrimidine-4-carboxamide], the concentration for half-maximal inhibition (IC50) stood at 2.34 nM in assay [1] and 3.4 nM in assay [2].
In the same order, the values of `C[C@@H](CO)NC(=O)c1cc(-c2ccc(Cl)cc2)nc(-c2ccc(Cl)s2)n1` [Example 72, 6-(4-chlorophenyl)-2-(5-chlorothiophen-2-yl)-N-[(2S)-1-hydroxypropan-2-yl]pyrimidine-4-carboxamide] are 32.6 nM and 98.2 nM.
In the same order, the values of `Cc1ncc(-c2nc(C(=O)NCC(C)(C)O)cc(-c3ccc(OC(F)(F)F)cc3)n2)cn1` [Example 21, N-(2-hydroxy-2-methylpropyl)-2′-methyl-6-[4-(trifluoromethoxy)phenyl][2,5′-bipyrimidine]-4-carboxamide] are 379 nM and 2130 nM.
As for `Cc1nn(C)cc1-c1nc(C(=O)NCC(C)(C)O)cc(-c2ccc(OC(F)(F)F)cc2)n1` [Example 25, 2-(1,3-dimethyl-1H-pyrazol-4-yl)-N-(2-hydroxy-2-methylpropyl)-6-[4-(trifluoromethoxy)phenyl]pyrimidine-4-carboxamide], the results for the IC50 in assay [1] and in assay [2] were 8.05 nM and 110 nM, respectively.
For `Cn1cc(-c2nc(C(=O)N[C@H](CO)C(C)(C)C)cc(-c3ccc(OC(F)(F)F)cc3)n2)cn1` [Example 88, N-[(2S)-1-hydroxy-3,3-dimethylbutan-2-yl]-2-(1-methyl-1H-pyrazol-4-yl)-6-[4-(trifluoromethoxy)phenyl]pyrimidine-4-carboxamide], the results for the 50% inhibitory concentration (IC50) in assay [1] and in assay [2] were 20.4 nM and 8.19 nM, respectively.
